Results: paper PMC6429297, “Novel 8-Substituted Coumarins That Selectively Inhibit Human Carbonic Anhydrase IX and XII” (International Journal of Molecular Sciences, 2019)
Like-named read-outs stand apart in the source and are kept apart here.

Tests used:
[1] = target: hCA IX (Homo sapiens, UniProt Q16790); assay: stopped-flow CO2 hydrase assay, hCA IX; conditions: recombinant hCA IX, 6 h preincubation, mean from three assays, errors ±5–10%
Description: (§1) An Applied Photophysics stopped-flow instrument has been used for assaying the CA catalyzed CO2 hydration activity [24]. […] The uncatalyzed rates were determined in the same manner and subtracted from the total observed rates. Stock solutions of inhibitor (0.1 mM) were prepared in distilled-deionized water and dilutions up to 0.005 nM were done thereafter with the assay buffer. Inhibitor and enzyme solutions were preincubated together for 6 hours at room temperature prior to assay, in order to allow for the formation of the E-I complex. The inhibition constants were obtained by nonlinear least-squares methods using PRISM 3 (GraphPad Software, San Diego, CA, USA) and the Cheng–Prusoff equation, as reported by Maresca et al. [14], and represent the mean from at least three different determinations. All CA isoforms were recombinant ones obtained in-house.

[2] = target: hCA XII (Homo sapiens, UniProt O43570); assay: stopped-flow CO2 hydrase assay, hCA XII
Description: as §1

[3] = target: hCA II (Homo sapiens, UniProt P00918); assay: stopped-flow CO2 hydrase assay, hCA II
Description: as §1

[4] = target: hCA I (Homo sapiens, UniProt P00915); assay: stopped-flow CO2 hydrase assay, hCA I
Description: as §1

[5] = set-up: method as in PMID 20024932; conditions: hepatotoxic effect of coumarin; cited from earlier work

Sequence of hCA I (P00915 whole entry): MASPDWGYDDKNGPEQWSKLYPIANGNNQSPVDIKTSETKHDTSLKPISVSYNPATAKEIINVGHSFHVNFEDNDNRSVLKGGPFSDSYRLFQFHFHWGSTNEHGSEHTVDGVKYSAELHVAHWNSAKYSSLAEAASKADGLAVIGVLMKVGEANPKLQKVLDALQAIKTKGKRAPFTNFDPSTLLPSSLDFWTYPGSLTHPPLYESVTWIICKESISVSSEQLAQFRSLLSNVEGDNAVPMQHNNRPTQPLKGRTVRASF
Sequence of hCA XII (O43570 25-354): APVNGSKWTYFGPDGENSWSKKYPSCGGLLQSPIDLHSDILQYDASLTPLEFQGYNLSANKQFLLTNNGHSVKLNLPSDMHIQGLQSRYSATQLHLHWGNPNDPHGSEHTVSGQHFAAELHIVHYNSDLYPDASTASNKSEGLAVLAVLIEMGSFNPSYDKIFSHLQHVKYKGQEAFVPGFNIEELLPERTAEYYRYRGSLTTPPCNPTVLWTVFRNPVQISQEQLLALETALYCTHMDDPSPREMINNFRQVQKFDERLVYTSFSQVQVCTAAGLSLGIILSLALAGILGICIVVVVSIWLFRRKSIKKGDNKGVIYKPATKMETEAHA

| Compound | Ki ([1]; Ki (nM) hCA IX) [nM] | Ki [2] [nM] | Ki [3] [nM] | Ki [4] [nM] | tolerable daily intake [5] [mg/kg body weight] | Ki ([1]; read-out: Ki (nM) hCA IX) [nM] |
| --- | --- | --- | --- | --- | --- | --- |
| Cc1cc(=O)oc2c(CN3CCN(c4ccccc4)CC3)c(O)ccc12 [Compound 7, 7-Hydroxy-4-methyl-8-(4-phenylpiperazin-1-ylmethyl)chromen-2-one] | 115 | 7.7 | > 10000 | > 10000 | – | – |
| Cc1ccc(N2CCN(Cc3c(O)ccc4c(C)cc(=O)oc34)CC2)cc1 [Compound 11, 7-Hydroxy-4-methyl-8-(4-p-tolyl-piperazin-1-ylmethyl)chromen-2-one] | 308 | 9.6 | > 10000 | > 10000 | – | – |
| O=c1ccc2ccccc2o1 [coumarin] | – | – | – | – | 0.1 | – |
| Cc1cc(=O)oc2c(CN3CCN(c4ccc(F)cc4)CC3)c(O)ccc12 [Compound 9, 8-[(4-(4-Fluorophenyl)piperazin-1-yl)methyl]-7-hydroxy-4-methylchromen-2-one] | 92.8 | 8.1 | > 10000 | > 10000 | – | – |
| CCN1CCN(Cc2c(O)ccc3c(C)cc(=O)oc23)CC1 [Compound 4, 8-(4-Ethylpiperazin-1-ylmethyl)-7-hydroxy-4-methylchromen-2-one] | 32 | 6.4 | > 10000 | > 10000 | – | – |
| Cc1cc(=O)oc2c(CN3CCN(c4ccc(Br)cc4)CC3)c(O)ccc12 [Compound 10, 7-Hydroxy-8-[4-(bromophenyl)-piperazin-1-ylmethyl]-4-methylchromen-2-one] | 162 | 9.4 | > 10000 | > 10000 | – | – |
| Cc1cc(=O)oc2c(CN3CCN(c4ccccc4F)CC3)c(O)ccc12 [Compound 12, 8-[4-(2-Fluorophenyl)piperazin-1-ylmethyl]-7-hydroxy-4-methylchromen-2-one] | 121 | 26.4 | > 10000 | > 10000 | – | – |
| Cc1cc(=O)oc2c(CN3CCN(CCO)CC3)c(O)ccc12 [Compound 5, 7-Hydroxy-8-[4-(2-hydroxyethyl)piperazin-1-ylmethyl]-4-methylchromen-2-one] | 295 | 7.1 | > 10000 | > 10000 | – | – |
| Cc1cc(=O)oc2c(CN3CCN(C)CC3)c(O)ccc12 [Compound 3, 7-Hydroxy-4-methyl-8-(4-methylpiperazin-1-ylmethyl)chromen-2-one] | 88.7 | 9.6 | > 10000 | > 10000 | – | – |
| Cc1cc(=O)oc2c(CN3CCN(c4ccc(Cl)cc4)CC3)c(O)ccc12 [Compound 8, 8-[4-(4-Chlorophenyl)piperazin-1-ylmethyl]-7-hydroxy-4-methylchromen-2-one] | 190 | 8.9 | > 10000 | > 10000 | – | – |
| Cc1cc(=O)oc2c(CN3CCN(Cc4ccc5c(c4)OCO5)CC3)c(O)ccc12 [Compound 13, 8-(4-Benzo[1,3]dioxol-5-ylmethyl-piperazin-1-ylmethyl)-7-hydroxy-4-methyl-chromen-2-one] | 76.8 | 8.5 | > 10000 | > 10000 | – | – |
| Cc1cc(=O)oc2c(CN3CCN(Cc4c(O)ccc5c(C)cc(=O)oc45)CC3)c(O)ccc12 [Compound 2, 1,4-bis[(7-Hydroxy-4-methylcoumarin-8-yl)methyl] piperazine] | 67.5 | 8.5 | > 10000 | > 10000 | – | – |
| C=CCN1CCN(Cc2c(O)ccc3c(C)cc(=O)oc23)CC1 [Compound 6, 8-(4-Allylpiperazin-1-ylmethyl)-7-hydroxy-4-methylchromen-2-one] | – | 5.6 | > 10000 | > 10000 | – | 27.1 |
| Cc1cc(=O)oc2cc(O)ccc12 [Compound 1, 7-Hydroxy-4-methylchromen-2-one] | 32.1 | 5.8 | > 10000 | > 10000 | – | – |
